Patent US8415359B2, “Phenylpyrrole derivative” (Daiichi Sankyo Company, Limited, priority 2008, dated 2013)

Biological target: T1, human pancreatic GK (human glucokinase variant 1, GST-fused protein) (Homo sapiens, UniProt P35557)
T1 construct: made in house; host or cells: Escherichia coli (such as BL21 or JM109)
T1 sequence (P35557 1-465): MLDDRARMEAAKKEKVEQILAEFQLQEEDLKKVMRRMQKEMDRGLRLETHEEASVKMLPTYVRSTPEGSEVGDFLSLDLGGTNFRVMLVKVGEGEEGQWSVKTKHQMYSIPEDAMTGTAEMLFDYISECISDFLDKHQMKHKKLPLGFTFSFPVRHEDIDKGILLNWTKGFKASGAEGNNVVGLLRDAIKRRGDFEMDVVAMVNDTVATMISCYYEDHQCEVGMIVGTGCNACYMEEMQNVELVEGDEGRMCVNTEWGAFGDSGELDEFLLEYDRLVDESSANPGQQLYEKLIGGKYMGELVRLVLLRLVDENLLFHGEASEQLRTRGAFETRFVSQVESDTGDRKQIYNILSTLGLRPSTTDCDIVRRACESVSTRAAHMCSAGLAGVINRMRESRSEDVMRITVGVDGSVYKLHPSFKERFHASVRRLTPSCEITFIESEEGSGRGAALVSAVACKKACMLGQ
Test: GK activity test (GK activation rate)
Format: biochemical
Details: test compound 1 μM; glucose 5 mM; 30 min at room temperature; absorbance at 340 nm with test compound / without test compound
Description: cDNA encoding human pancreatic GK polypeptide (GenBank Accession No. NM_000162, human glucokinase variant 1) was cloned from a human cDNA library by polymerase chain reaction (PCR), and introduced into a glutathione S-transferase (GST)-fused protein expression vector (GEX4T, GE Healthcare Bioscience). The vector was introduced into Escherichia coli (such as BL21 or JM109, Invitrogen), and the transformed E. coli was cultured overnight at 37° C. followed by recovery of the cells. After freezing and thawing the recovered cells, the cells were suspended in phosphate buffer containing Triton-X at a final concentration of 1% followed by disrupting the cells with an ultrasonic homogenizer. The supernatant obtained by low-speed centrifugation treatment of the homogenate (10,000×g, 30 minutes) was further subjected to high-speed centrifugation (100,000×g, 10 minutes) followed by recovering the supernatant and purifying the fused protein using a GST fused protein purification system (Bulk GST Purification Module, GE Healthcare Bioscience). The GK fused protein was divided into smaller aliquots and stored at −80° C.
GK activity was measured using the GK purified in (1) above. More specifically, an enzyme solution was prepared by adding the purified GK of (1) above and glucose-6-phosphate dehydrogenase (Sigma) to solution 1 of a glucose assay kit (D-Glucose UV Method, Roche Diagnostics). The enzyme solution, a test compound diluent and glucose (final concentration: 5 mM) were mixed in a 96-well ELISA plate, and allowed to react for 30 minutes at room temperature. Following completion of the reaction, absorbance at a wavelength of 340 nm was measured using SpectraMax Plus (Molecular Probe). Furthermore, unreacted (when glucose was not added) absorbance was used for the background.
GK activation rates were indicated with values represented by the following numerical formula: (absorbance after reacting for 30 minutes when test compound added)/(absorbance after reacting for 30 minutes when test compound not added).

| GK Activation Rate | Compound |
| --- | --- |
| 2.4 | CNS(=O)(=O)c1ccc(Oc2cc(O[C@@H](C)COC)cc(-c3ccc(C4=NC[C@H](CO)O4)[nH]3)c2)cn1 [Example 127, 5-(3-{5-[(5R)-5-(Hydroxymethyl)-4,5-dihydro-1,3-oxazol-2-yl]-1H-pyrrol-2-yl}-5-[(1S)-2-methoxy-1-methylethoxy]phenoxy)-N-methylpyridine-2-sulfonamide] |
| 1.7 | COC[C@H](C)Oc1cc(Oc2ccc(S(C)(=O)=O)cc2)cc(-c2ccc(C3=NC[C@@H](C)O3)[nH]2)c1 [Example 33, (5R)-2-(5-{3-[(1S)-2-Methoxy-1-methylethoxy]-5-[4-(methylsulfonyl)phenoxy]phenyl}-1H-pyrrol-2-yl)-5-methyl-4,5-dihydro-1,3-oxazole] |
| 1.9 | COC[C@H](C)Oc1cc(Oc2ccc(S(C)(=O)=O)cc2)cc(-c2ccc(-c3ncc(C)s3)[nH]2)c1 [Example 3, 2-(5-{3-[(1S)-2-Methoxy-1-methylethoxy]-5-[4-(methylsulfonyl)phenoxy]phenyl}-1H-pyrrol-2-yl)-5-methyl-1,3-thiazole] |
| 2.0 | COC[C@H](C)Oc1cc(Oc2ccc(S(C)(=O)=O)cc2)cc(-c2ccc(C3=NC[C@H](C)O3)[nH]2)c1 [Example 31, (5S)-2-(5-{3-[(1S)-2-Methoxy-1-methylethoxy]-5-[4-(methylsulfonyl)phenoxy]phenyl}-1H-pyrrol-2-yl)-5-methyl-4,5-dihydro-1,3-oxazole] |
| 2.6 | COC[C@H](C)Oc1cc(Oc2ccc(S(C)(=O)=O)nc2)cc(-c2ccc(C3=N[C@H](CO)[C@H](C)O3)[nH]2)c1 [Example 91, {(4R,5S)-2-[5-(3-[(1S)-2-Methoxy-1-methylethoxy]-5-{[6-(methylsulfonyl)pyridin-3-yl]oxy}phenyl)-1H-pyrrol-2-yl]-5-methyl-4,5-dihydro-1,3-oxazol-4-yl}methanol] |
| 2.3 | C[C@@H](CO)Oc1cc(Oc2ccc(S(C)(=O)=O)cc2)cc(-c2ccc(C3=NCCS3)[nH]2)c1 [Example 26, (2S)-2-{3-[5-(4,5-Dihydro-1,3-thiazol-2-yl)-1H-pyrrol-2-yl]-5-[4-(methylsulfonyl)phenoxy]phenoxy}propan-1-ol] |
| 2.0 | COC[C@H](C)Oc1cc(Oc2ccc(S(C)(=O)=O)cc2)cc(-c2ccc(C3=NCC(CO)O3)[nH]2)c1 (stereo partly drawn) [Example 29, [2-(5-{3-[(1S)-2-Methoxy-1-methylethoxy]-5-[4-(methylsulfonyl)phenoxy]phenyl}-1H-pyrrol-2-yl)-4,5-dihydro-1,3-oxazol-5-yl]methanol] |
| 2.0 | C[C@@H](CO)Oc1cc(Oc2ccc(S(C)(=O)=O)cc2)cc(-c2ccc(C3=NCCO3)[nH]2)c1 [Example 21, (2S)-2-{3-[5-(4,5-Dihydro-1,3-oxazol-2-yl)-1H-pyrrol-2-yl]-5-[4-(methylsulfonyl)phenoxy]phenoxy}propan-1-ol] |
| 1.6 | COC[C@H](C)Oc1cc(Oc2ccc(S(C)(=O)=O)cc2)cc(-c2ccc(C(C)=O)[nH]2)c1 [Example 15, 1-(5-{3-[(1S)-2-Methoxy-1-methylethoxy]-5-[4-(methylsulfonyl)phenoxy]phenyl}-1H-pyrrol-2-yl)ethanone] |
| 2.0 | COC[C@H](C)Oc1cc(Oc2ccc(S(C)(=O)=O)cc2)cc(-c2ccc(-c3nccs3)[nH]2)c1 [Example 1, 2-(5-{3-[(1S)-2-Methoxy-1-methylethoxy]-5-[4-(methylsulfonyl)phenoxy]phenyl}-1H-pyrrol-2-yl)-1,3-thiazole] |

More lines, now with the values behind:

| Compound | GK Activation Rate |
| --- | --- |
| CC[C@@H]1COC(c2ccc(-c3cc(Oc4cnc(S(C)(=O)=O)cn4)cc(O[C@@H](C)CO)c3)[nH]2)=N1 [Example 108, (2S)-2-(3-{5-[(4R)-4-Ethyl-4,5-dihydro-1,3-oxazol-2-yl]-1H-pyrrol-2-yl}-5-{[5-(methylsulfonyl)pyrazin-2-yl]oxy}phenoxy)propan-1-ol] | 2.0 |
| COC[C@H](C)Oc1cc(Oc2cnc(S(C)(=O)=O)cn2)cc(-c2ccc(C3=N[C@H]([C@@H](C)O)CO3)[nH]2)c1 [Example 114, (1R)-1-{(4S)-2-{[5-(3-[(2S)-1-Methoxypropan-2-yl]oxy}-5-{[5-(methylsulfonyl)pyrazin-2-yl]oxy}phenyl)-1H-pyrrol-2-yl]-4,5-dihydro-1,3-oxazol-4-yl}ethanol] | 2.2 |
| COC[C@H](C)Oc1cc(Oc2ncc(C(=O)N3CCC3)cc2Cl)cc(-c2ccc(C3=NCCO3)[nH]2)c1 [Example 73, 5-(Azetidin-1-ylcarbonyl)-3-chloro-2-{3-[5-(4,5-dihydro-1,3-oxazol-2-yl)-1,4-pyrrol-2-yl]-5-[(1S)-2-methoxy-1-methylethoxy]phenoxyl}pyridine] | 2.0 |
| Cc1nnc(-c2ccc(-c3cc(Oc4ccc(S(C)(=O)=O)nc4)cc(O[C@@H](C)CO)c3)[nH]2)o1 [Example 81, (2S)-2-(3-[5-(5-Methyl-1,3,4-oxadiazol-2-yl)-1H-pyrrol-2-yl]-5-{[6-(methylsulfonyl)pyridin-3-yl]oxy}phenoxy)propan-1-ol] | 2.2 |
| COC[C@H](C)Oc1cc(Oc2ncc(C(=O)N3CCC3)cc2Cl)cc(-c2ccc(C3=NC[C@H](C)O3)[nH]2)c1 [Example 74, 5-(Azetidin-1-ylcarbonyl)-3-chloro-2-(3-[(1S)-2-methoxy-1-methylethoxy]-5-{5-[(5S)-5-methyl-4,5-dihydro-1,3-oxazol-2-yl]-1H-pyrrol-2-yl}phenoxy)pyridine] | 2.0 |
| COC[C@H](C)Oc1cc(Oc2cnc(S(C)(=O)=O)cn2)cc(-c2ccc(C3=NC(O)[C@H](C)O3)[nH]2)c1 (stereo partly drawn) [Example 103, (5S)-2-[5-(3-[(1S)-2-Methoxy-1-methylethoxy]-5-{[5-(methylsulfonyl)pyrazin-2-yl]oxy}phenyl)-1H-pyrrol-2-yl]-5-methyl-4,5-dihydro-1,3-oxazol-4-ol] | 2.1 |
| COC[C@H](C)Oc1cc(Oc2ccc(S(C)(=O)=O)nc2)cc(-c2ccc(-c3nccs3)[nH]2)c1 [Example 65, 5-{3-[(1S)-2-Methoxy-1-methylethoxy]-5-[5-(1,3-thiazol-2-yl)-1H-pyrrol-2-yl]phenoxy}-2-(methylsulfonyl)pyridine] | 2.4 |
